Where a SMILES comes first, the peptide text is derived from it. Bridges are numbered along the chain shown (N, C = ends).
How the values were obtained:
[1] = Stability in mouse serum by RP-HPLC; format: in vitro ADME; conditions: 25% mouse serum spiked with 100 μg/ml NZX, 37°C, peak area ratio to initial time, read-out: peptide remaining intact
Experimental: The stability of NZX in the mouse serum was determined when placed at 37°C (Wang et al., [2020]). The stock mixture from 25% serum was spiked with 100 μg/ml NZX and vortexed well. The mixtures were incubated at 37°C. At 0, 4, 8, 12, and 24 h, samples were taken out, extracted, and analyzed by reverse-phase high-performance liquid chromatography (RP-HPLC). The results were expressed as the ratio of the peak area of the peptide at various times to that of the initial incubation time.

[2] = Pharmacokinetics in non-infected mice, single tail vein dose; format: in vivo, mouse; conditions: for T1/2, terminal elimination half-life / AUC, area under concentration-time curves / Cmax, peak concentration / MRT, mean residence time / Vd, apparent distribution volume: free-serum NZX; for T1/2, terminal elimination half-life: non-infected female ICR mice, microbiologic assay, non-compartment model; for AUC, area under concentration-time curves / Cmax, peak concentration / MRT, mean residence time / Vd, apparent distribution volume: non-infected mice
Experimental: (§1) The 6-week-old, specific-pathogen-free, female ICR mice (starting weight, 23 to 27 g) were purchased from Beijing Vital River Laboratory Animal Technology Co., Ltd (Beijing, China). The animals were acclimatized for 2 to 3 days before the experiment. The pharmacokinetics of NZX was evaluated in uninfected female ICR mice that received a single tail vein NZX dose of 5, 10, or 20 mg/kg, respectively. After NZX administration, blood samples were collected by orbital venous from five mice per time point at 0.083 to 2 h intervals over 6 h. After centrifugation at 4,000 rpm for 20 min at 4°C, the serum was immediately separated and frozen at −80°C until analysis. Analyses of total serum concentrations of NZX were conducted by a microbiologic assay using S. aureus ATCC 6538p (CICC 10307) as the test strain (Andes et al., [2009]). […] The protein binding of NZX in serum was measured by the ultrafiltration method using Centrifree Filters (Merck Millipore Ltd., Product code: 4104), according to previously described methods by Brinch et al. ([2009]). The concentration of NZX in the ultrafiltrate was determined by HPLC methods.
The pharmacokinetic parameters of NZX in the serum were analyzed using a non-compartment model by WinNonlin software (version 8.1; Pharsight, USA). GraphPad Prism (version 9.0.1) was used for all statistical analyses. One-way ANOVA followed by Dunnett's test was performed to compare the difference between groups. A P-value <0.05 was considered as the significant difference. Kaplan Meier analysis was conducted for the survival curve; log-rank (Mantel-Cox) test analyses were used to compare the survival rate difference.

[3] = Serum protein binding by ultrafiltration; format: in vitro ADME, mouse; conditions: murine serum, ultrafiltration with Centrifree Filters, ultrafiltrate by HPLC
Experimental: as §1

[4] = system: S. aureus E48; experiment: PK/PD index determination, dose fractionation, sigmoidal Emax model; format: in vivo, mouse
Experimental: A dose fractionation study was applied to determine the PK/PD parameters of ƒAUC/MIC, ƒCmax/MIC, and ƒT% > MIC, and those parameters were predictive of efficacies for NZX against S. aureus E48. […] The correlations between efficacies and each PK/PD index were analyzed by non-linear least-squares regression based on the sigmoidal Emax model (Hill's equation) (Yu et al., [2016]). Hill's equation was defined as follows:
E =[…] × Ce^N/EC50N + Ce^N
where E is the observed antibacterial effect, which describes the change of log10 CFU/ml in the peritoneal fluid after 24 h of NZX treatment compared to the colony counts at the start of therapy. Emax is the change of log10 CFU/ml in the peritoneal fluid after 24 h of NZX treatment when the maximum antibacterial effect has been reached. E0 is the change of log10 CFU/ml in the peritoneal fluid between initial therapy and after 24 h therapy in untreated control animals. Ce is defined as the three PK/PD parameters (ƒAUC/MIC ratio, ƒCmax/MIC ratio, and ƒT % > MIC). EC50 is the value of the PK/PD parameter that is required to achieve 50% of the maximum antibacterial effect. N is the steepness of the fitted concentration-response curve. The coefficient of determination (R^2) between efficacy and the PK/PD parameters was used for determining the goodness of fit of the curves. In addition, the parameters required to achieve bacterial stasis (Cs), 1 log10 kill, and 2 log10 kill were calculated interpolation or extrapolation based on Hill's equation.

[5] = free NZX in serum, tail vein 5, 10, 20 mg/kg, range over doses
[6] = 5 mg/kg, 1 dose in 24 h, total dose 0.125 mg
[7] = 5 mg/kg, 2 doses in 24 h, total dose 0.25 mg
[8] = 10 mg/kg, 1 dose in 24 h, total dose 0.25 mg
[9] = 10 mg/kg, 2 doses in 24 h, total dose 0.5 mg
[10] = 20 mg/kg, 1 dose in 24 h, total dose 0.5 mg
[11] = 20 mg/kg, 2 doses in 24 h, total dose 1 mg

CC[C@H](C)[C@@H]1NC(=O)[C@H](CO)NC(=O)[C@H](CCCCN)NC(=O)[C@@H]2CSSC[C@@H](C(=O)N[C@@H](Cc3ccc(O)cc3)C(=O)O)NC(=O)[C@H](CCCCN)NC(=O)[C@@H]3CSSC[C@H](NC(=O)[C@H](CCC(N)=O)NC(=O)[C@H]([C@@H](C)CC)NC(=O)[C@H](CC(=O)O)NC(=O)[C@H](CC(=O)O)NC(=O)[C@H](CCC(=O)O)NC(=O)[C@H](CO)NC(=O)[C@H](Cc4c[nH]c5ccccc45)NC(=O)[C@@H]4CCCN4C(=O)CNC(=O)[C@H](CC(N)=O)NC(=O)[C@@H](NC(=O)CNC(=O)[C@H](Cc4ccccc4)NC(=O)CN)CSSC[C@H](NC(=O)[C@H](Cc4ccc(O)cc4)NC(=O)CNC(=O)CNC(=O)[C@H](CCCCN)NC(=O)[C@H](Cc4ccc(O)cc4)NC(=O)CNC(=O)[C@H](CCCCN)NC1=O)C(=O)N[C@@H](C)C(=O)N[C@@H](CCCNC(=N)N)C(=O)NCC(=O)NCC(=O)N[C@@H](Cc1ccccc1)C(=O)N[C@@H](C(C)C)C(=O)N3)C(=O)N[C@@H](Cc1c[nH]cn1)C(=O)N[C@@H](CC(N)=O)C(=O)N[C@@H](Cc1c[nH]cn1)C(=O)N2 [NZX] (H-GFGCNGPWSEDDIQCHNHCKSIKGYKGGYCARGGFVCKCY-OH; disulfide 4-30, 15-37, 19-39)
remaining at 24 h, 100 μg/ml [1]: 97%
time at which peak concentrations (Cmax) were observed ([2]; after intravenous administration, 5, 10, 20 mg/kg): 5 min
Cmax over the three dose levels [2, 5]: 2.85 to 20.55 µg/mL
T1/2 over the three dose levels [2, 5]: 19.2 to 30 min
Vd over the three dose levels [2, 5]: 1.4691 to 2.0739 L/kg
T1/2, terminal elimination half-life ([2]; single intravenous 5 mg/kg, five mice per time point): 19.2 min
AUC, area under concentration-time curves ([2]; single intravenous 5 mg/kg): 1.11 µg·h/mL
Cmax, peak concentration ([2]; single intravenous 5 mg/kg): 2.85 µg/mL
MRT, mean residence time ([2]; single intravenous 5 mg/kg): 19.2 min
Vd, apparent distribution volume ([2]; single intravenous 5 mg/kg): 2.0739 L/kg
T1/2, terminal elimination half-life ([2]; single intravenous 10 mg/kg): 30 min
AUC, area under concentration-time curves ([2]; single intravenous 10 mg/kg): 3.54 µg·h/mL
Cmax, peak concentration ([2]; single intravenous 10 mg/kg): 6.53 µg/mL
MRT, mean residence time ([2]; single intravenous 10 mg/kg): 38.4 min
Vd, apparent distribution volume ([2]; single intravenous 10 mg/kg): 2.04541 L/kg
T1/2, terminal elimination half-life ([2]; single intravenous 20 mg/kg): 27 min
AUC, area under concentration-time curves ([2]; single intravenous 20 mg/kg): 8.89 µg·h/mL
Cmax, peak concentration ([2]; single intravenous 20 mg/kg): 20.55 µg/mL
MRT, mean residence time ([2]; single intravenous 20 mg/kg): 33.6 min
Vd, apparent distribution volume ([2]; single intravenous 20 mg/kg): 1.4691 L/kg
Protein binding [3]: 89.25%
fAUC/MIC [4, 6]: 1.11
fT > MIC [4, 6]: 0.33 h
fAUC/MIC [4, 7]: 2.22
fT > MIC [4, 7]: 0.67 h
fAUC/MIC [4, 8]: 3.54
fT > MIC [4, 8]: 0.94 h
fAUC/MIC [4, 9]: 7.08
fT > MIC [4, 9]: 1.88 h
fAUC/MIC [4, 10]: 8.89
fT > MIC [4, 10]: 2.05 h
fAUC/MIC [4, 11]: 17.79
fT > MIC [4, 11]: 4.09 h
